From patent publication US10801050B2, “Microorganism modified for the assimilation of levulinic acid” (priority 2015, dated 2020)

Experiment: In vitro validation of enzymatic activities: LC-MS/MS detection of levulinyl-CoA after incubation of purified proteins with substrates
Assay type: biochemical, Ralstonia eutropha
Conditions: purified proteins incubated with their respective substrates; reverse phase UPLC, negative ion MS/MS
Description: To validate the activity of the candidates identified in Example 2 above with regard to reactions A1, A2 and B, their corresponding genes were cloned into the expression plasmid pPAL7 (Biorad®). In the case of QOKBZ9_CUPNH and Q0KC00_CUPNH, the corresponding genes were cloned in operon into the pPAL7. The resulting plasmids were transformed into E. coli BL21(DE3) strain.
The resulting strains were cultivated as described in patent application WO 2010/076324, incorporated herein by reference. Cells were collected by centrifugation and resuspended in potassium phosphate buffer 100 mM pH 7.6. Proteins were extracted by sonication and crude extracts were clarified by centrifugation. Recombinant protein purification was carried out using Biorad® PROfinity EXact cartridges according to the manufacturer's instructions. […]
Levulinyl-CoA was detected by reverse phase UPLC coupled to negative ion MS/MS, by searching for the transition from mass 864 (mass of levulinyl-CoA minus 1) to 408 (ion corresponding to the adenine part according to the protocol described by Zirrolli et al. 1994) as shown on FIG. 3.

In the case of “Q0KBZ9_CUPNH/Q0KC00_CUPNH: the 2 subunits of succinyl-CoA:3-ketoacid-coenzyme A transferase (EC 2.8.3.5), candidate for reaction A2”, the “detection of levulinyl-CoA in the reaction mixture (transition 864 to 408)” value is reported as “presence of levulinyl-CoA”.
